According to patent US20150065443A1, “EMBELIN-BASED DELIVERY SYSTEM FOR WATER-INSOLUBLE ACTIVE AGENTS” (priority 2012, published 2015):

System: MDA-MB-231 cells
Experiment: In vitro cytotoxicity, MTT assay
Settings: various concentrations of PTX, 72 h

Q: Which Cytotoxicity does the source give for `CC(=O)O[C@H]1C(=O)[C@@]2(C)[C@H]([C@H](OC(=O)c3ccccc3)[C@]3(O)C[C@H](OC(=O)[C@H](O)[C@@H](NC(=O)c4ccccc4)c4ccccc4)C(C)=C1C3(C)C)[C@]1(OC(C)=O)CO[C@@H]1C[C@@H]2O` [PTX, Paclitaxel] here?
A: exhibited cytotoxicity on MDA-MB-231 cells in a dose-dependent manner
